# From patent US20250163052A1, “cGAS INHIBITORS AND USES THEREOF” (Cornell University, priority 2022, published 2025)
# What was measured:
# THP1 cells = test: THP1-Dual cells, cell viability (CellTiter-Glo); format: cell-based
# Procedure: (§1) Evaluation of active cGAS inhibitors in THP1 cells (Table 3). Cellular activity of all compounds (in Table 3) was determined using THP1-Dual™ cells as described (Lama et. al., 2019). THP1-Dual™ cells (Invivogen) (50000 cells in 100 μl media) were seeded into each well of a 96-well plate and treated with compounds at various dilution for 4 hours. Subsequently, cells were transfected with DNA (2 ug/ml) and lipofectamine and incubate the cells were incubated overnight. Ifnb expression was measured in cell supernatant using Quantiluc, nfkb expression was determined using Quantiblue, and cell viability using Promega® CellTiter-Glo®.
# IFNB = test: THP1-Dual cells transfected with DNA, Ifnb expression (Quantiluc); format: cell-based; settings: Homo sapiens; for inhibition at 10 µM: THP-1, 10 μM; for inhibition at 30 µM: THP-1, 30 μM
# Procedure: as §1
# NFkB-SEAP = test: THP1-Dual cells transfected with DNA, nfkb expression (Quantiblue); format: cell-based; settings: Homo sapiens; for inhibition at 10 µM: THP-1, 10 μM; for inhibition at 30 µM: THP-1, 30 μM
# Procedure: as §1
# h-cGAS = h-cGAS (Homo sapiens, UniProt Q8N884); test: Cell-free human cGAS enzyme inhibition assay (ATP depletion, Kinase-Glo Max); format: biochemical; settings: 3 h; for inhibition at 1 µM: read-out: h-cGAS, conc. 1 μM; for inhibition at 10 µM: read-out: h-cGAS, conc. 10 μM
# Chain of h-cGAS (Q8N884 whole entry): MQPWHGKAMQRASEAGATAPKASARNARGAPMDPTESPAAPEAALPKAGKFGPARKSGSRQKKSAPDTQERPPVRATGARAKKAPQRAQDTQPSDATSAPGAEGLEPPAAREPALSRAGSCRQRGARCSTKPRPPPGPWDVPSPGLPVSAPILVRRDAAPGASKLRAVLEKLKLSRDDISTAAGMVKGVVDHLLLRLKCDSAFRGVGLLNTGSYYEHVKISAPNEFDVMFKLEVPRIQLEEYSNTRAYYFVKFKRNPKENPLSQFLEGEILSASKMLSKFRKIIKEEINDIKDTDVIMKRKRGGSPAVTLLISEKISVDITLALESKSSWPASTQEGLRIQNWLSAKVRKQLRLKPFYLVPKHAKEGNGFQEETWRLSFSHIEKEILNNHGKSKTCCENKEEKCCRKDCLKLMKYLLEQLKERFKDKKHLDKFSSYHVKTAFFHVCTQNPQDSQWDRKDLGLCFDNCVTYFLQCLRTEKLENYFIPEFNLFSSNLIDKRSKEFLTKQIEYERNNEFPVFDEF
# Procedure: (§2) Cell-free mouse and human cGAS enzyme inhibition assay (Table 2). Activity of all compounds (in Table 1) against m-cGAS (30 nM) and or h-cGAS, (100 nM) was determined by measuring the conversion of ATP and GTP (100 μM each) to cGAMP in the presence of dsDNA (5 ug/mL) in a reaction buffer composed of Tris-HCl (20 mM, pH7.4), NaCl (150 mM), MnCl2 (0.2 mM, h-cGAS) or MgCl2 (5 mM, m-cGAS) and Tween-20 (0.01%), and the remaining ATP concentration using Kinase-Glo®Max Luminescent Kinase Assay (Promega, Madison, WI), as described (Lama, et. al., 2019). Briefly, 10 μl of a master mix of 0.4 mM ATP, 0.4 mM GTP, 0.02 mg/mL dsDNA in the reaction buffer supplemented with 2 mM DTT was added to reaction wells containing TDI-6570 or TDI-8246 (2× of the desired concentration) in the same buffer ([…]) using a Thermo 8-channel Multidrop Combi dispenser. Next, 10 μl of a 4×m-cGAS (0.120 μM) or h-cGAS (0.4 μM) solution in the reaction buffer supplemented with 2 mM DTT was added to appropriate wells. Similar sets of reactions without cGAS or the inhibitor was set by adding the buffer alone. The reactions with the plates sealed were incubated at 37° C. (1 hour for m-cGAS and 3 hours for h-cGAS) and stopped by addition of 40 μl of the Kinase-Glo®Max. The luminescence was recorded in relative light units (RLUs) using a Biotek Synergy H1 Hybrid plate reader (BioTek, Winooski, VT). […] All reactions were run in triplicates and calculated using GraphPad Prism 9. The values represent mean IC50±S.D.
# m-cGAS = m-cGAS (Mus musculus, UniProt Q8C6L5); test: Cell-free mouse cGAS enzyme inhibition assay (ATP depletion, Kinase-Glo Max); format: biochemical; settings: 1 h; for inhibition at 1 µM: read-out: m-cGAS, conc. 1 μM; for inhibition at 10 µM: read-out: m-cGAS, conc. 10 μM
# Chain of m-cGAS (Q8C6L5 whole entry): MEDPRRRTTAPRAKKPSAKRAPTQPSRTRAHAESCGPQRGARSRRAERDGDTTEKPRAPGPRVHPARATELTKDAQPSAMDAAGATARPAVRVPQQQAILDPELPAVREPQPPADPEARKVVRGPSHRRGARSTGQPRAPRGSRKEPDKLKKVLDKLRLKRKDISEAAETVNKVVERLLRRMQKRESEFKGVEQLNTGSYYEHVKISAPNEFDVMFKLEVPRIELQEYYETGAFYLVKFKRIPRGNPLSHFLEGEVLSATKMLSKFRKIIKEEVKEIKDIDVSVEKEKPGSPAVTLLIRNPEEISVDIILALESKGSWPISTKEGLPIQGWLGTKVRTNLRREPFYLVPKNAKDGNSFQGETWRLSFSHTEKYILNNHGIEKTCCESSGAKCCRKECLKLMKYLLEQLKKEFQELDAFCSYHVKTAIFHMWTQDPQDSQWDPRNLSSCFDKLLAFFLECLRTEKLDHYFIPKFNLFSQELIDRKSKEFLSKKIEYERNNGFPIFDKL
# Procedure: as §2
SMILES,inhibition at 1 µM (h-cGAS) [%],inhibition at 10 µM (h-cGAS) [%],inhibition at 1 µM (m-cGAS) [%],inhibition at 10 µM (m-cGAS) [%],Cell viability 10 μM (THP1 cells),Cell viability 30 μM (THP1 cells),inhibition at 10 µM (IFNB) [%],inhibition at 30 µM (IFNB) [%],inhibition at 10 µM (NFkB-SEAP) [%],inhibition at 30 µM (NFkB-SEAP) [%]
O=C(CO)N1CCc2sc3c(Cl)c(Cl)cc(-c4cn[nH]c4)c3c2C1 [Compound 51],0 to 24,25 to 49,–,0 to 24,"+++ (+, ++, and +++ mean the compound respectively shows 25-49%; 50-74%; or 75-100% viability to cells)","+++ (+, ++, and +++ mean the compound respectively shows 25-49%; 50-74%; or 75-100% viability to cells)",25 to 49,75 to 100,–,–
Cn1c2c(c3c(-c4ccc(N)nc4)cc(Cl)c(Cl)c31)CN(C(=O)C1CCCN1)CC2 (stereo not drawn) [Compound 17],25 to 49,75 to 100,–,0 to 24,"+++ (+, ++, and +++ mean the compound respectively shows 25-49%; 50-74%; or 75-100% viability to cells)","++ (+, ++, and +++ mean the compound respectively shows 25-49%; 50-74%; or 75-100% viability to cells)",25 to 49,75 to 100,25 to 49,75 to 100
Nc1ccc(-c2cc(Cl)c(Cl)c3oc4c(c23)CN(C(=O)CO)CC4)cn1 [Compound 26],50 to 74,75 to 100,–,25 to 49,"+++ (+, ++, and +++ mean the compound respectively shows 25-49%; 50-74%; or 75-100% viability to cells)","+++ (+, ++, and +++ mean the compound respectively shows 25-49%; 50-74%; or 75-100% viability to cells)",50 to 74,75 to 100,–,–
O=C(CO)N1CCc2sc3c(Cl)c(Cl)cc(-c4ccco4)c3c2C1 [Compound 52],0 to 24,50 to 74,–,0 to 24,"+++ (+, ++, and +++ mean the compound respectively shows 25-49%; 50-74%; or 75-100% viability to cells)","+++ (+, ++, and +++ mean the compound respectively shows 25-49%; 50-74%; or 75-100% viability to cells)",25 to 49,75 to 100,–,–

# Continued, in another order:
inhibition at 1 µM (h-cGAS) [%],inhibition at 10 µM (h-cGAS) [%],inhibition at 1 µM (m-cGAS) [%],inhibition at 10 µM (m-cGAS) [%],SMILES,Cell viability 10 μM (THP1 cells),Cell viability 30 μM (THP1 cells),inhibition at 10 µM (IFNB) [%],inhibition at 30 µM (IFNB) [%],inhibition at 10 µM (NFkB-SEAP) [%],inhibition at 30 µM (NFkB-SEAP) [%]
0 to 24,50 to 74,25 to 49,75 to 100,NCC(=O)N1CCc2c(sc3c(Cl)c(Cl)cc(-c4cccnc4)c23)C1 [Compound 78],"+ (+, ++, and +++ mean the compound respectively shows 25-49%; 50-74%; or 75-100% viability to cells)","− (Cell viability <24%, in THP1 cells is expressed as “−”)",75 to 100,75 to 100,50 to 74,75 to 100
0 to 24,50 to 74,0 to 24,75 to 100,NCC(=O)N1CCc2sc3c(Cl)c(Cl)cc(-c4cncnc4)c3c2C1 [Compound 53],"+++ (+, ++, and +++ mean the compound respectively shows 25-49%; 50-74%; or 75-100% viability to cells)","− (Cell viability <24%, in THP1 cells is expressed as “−”)",< 24,75 to 100,25 to 49,50 to 74
25 to 49,50 to 74,0 to 24,50 to 74,NCC(=O)N1CCc2c(sc3c(Cl)c(Cl)cc(-n4cccn4)c23)C1 [Compound 94],"+++ (+, ++, and +++ mean the compound respectively shows 25-49%; 50-74%; or 75-100% viability to cells)",–,< 24,–,< 24,–
–,50 to 74,–,0 to 24,CC(C)(N)C(=O)N1CCc2sc3c(Cl)c(Cl)cc(-c4ccc(N)nc4)c3c2C1 [Compound 56],"+ (+, ++, and +++ mean the compound respectively shows 25-49%; 50-74%; or 75-100% viability to cells)","− (Cell viability <24%, in THP1 cells is expressed as “−”)",75 to 100,75 to 100,–,–
–,50 to 74,–,0 to 24,Nc1ccc(-c2cc(Cl)c(Cl)c3sc4c(c23)CN(C(=O)[C@H]2CCCN2)CC4)cn1 [Compound 57],"− (Cell viability <24%, in THP1 cells is expressed as “−”)","− (Cell viability <24%, in THP1 cells is expressed as “−”)",75 to 100,75 to 100,–,–
